In the supplement of paper PMC11562712:

Test: first-order primary biodegradation rate constant k (sorption-corrected, fDis-corrected) (d-1); higher = faster biodegradation
Method in brief: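 River water with sieved sediment (50 g wet solid L^–1) from German, Swiss, Spanish and Greek river segments was spiked with 129 compounds at 1 μg L^–1 each. It was shaken in the dark at river water temperature (20.5 ± 3.5 °C) for 10 days. Filtered water-phase subsamples were analysed by UHPLC-Orbitrap-MS/MS. First-order k came from log peak-area regression over three replicates, corrected for azide-sterilised sorption-control dissipation and divided by dissolved fraction; invalid fits excluded.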

[1] = river segment: Germany (DE) H_Contam, incubation temperature 24 °C
[2] = river segment: Germany (DE) T_Contam, incubation temperature 24 °C
[3] = river segment: Greece (EL) A_Contam, incubation temperature 19 °C
[4] = river segment: Greece (EL) L_Contam, incubation temperature 19 °C
[5] = river segment: Spain (ES) B_Contam, incubation temperature 24 °C
[6] = river segment: Spain (ES) C_Contam, incubation temperature 24 °C
[7] = river segment: Spain (ES) F_Pris_Salt, incubation temperature 24 °C
[8] = river segment: Spain (ES) L_Contam, incubation temperature 24 °C
[9] = river segment: Germany (DE) T_Pris, incubation temperature 24 °C
[10] = river segment: Greece (EL) G_Contam, incubation temperature 19 °C
[11] = river segment: Greece (EL) G_Pris, incubation temperature 19 °C
[12] = river segment: Switzerland (CH) C_Contam, incubation temperature 17 °C
[13] = river segment: Switzerland (CH) R_Contam, incubation temperature 17 °C
[14] = river segment: Switzerland (CH) U_Contam, incubation temperature 17 °C
[15] = river segment: Switzerland (CH) U_Pris, incubation temperature 17 °C

Row | SMILES | first-order primary biodegradation rate constant k [1] | first-order primary biodegradation rate constant k [2] | first-order primary biodegradation rate constant k [3] | first-order primary biodegradation rate constant k [4] | first-order primary biodegradation rate constant k [5] | first-order primary biodegradation rate constant k [6] | first-order primary biodegradation rate constant k [7] | first-order primary biodegradation rate constant k [8] | first-order primary biodegradation rate constant k [9] | first-order primary biodegradation rate constant k [10] | first-order primary biodegradation rate constant k [11] | first-order primary biodegradation rate constant k [12] | first-order primary biodegradation rate constant k [13] | first-order primary biodegradation rate constant k [14] | first-order primary biodegradation rate constant k [15]
1 | COc1cc(Cc2cnc(N)nc2N)cc(OC)c1OC [Trimethoprim] | 0.173 | – | 0.431 | 1.57 | 0.192 | 0.383 | 0.726 | 0.758 | 0.612 | 0.993 | 0.704 | 1.11 | 1.65 | 2.23 | 2.52
2 | CC(C)N(C(=O)COc1nnc(C(F)(F)F)s1)c1ccc(F)cc1 [Flufenacet] | 0.0427 | 0.151 | 0.0323 | – | 0.0399 | 0.0442 | – | 0.0865 | – | – | 0.0751 | – | – | 0.0707 | 0.105
3 | COC(=O)Nc1nc2ccccc2[nH]1 [Carbendazim] | 0.0157 | 0.155 | 0.1 | – | 0.0208 | 0.00806 | 0.03 | 0.0322 | 0.00648 | – | 0.0594 | – | – | 0.0106 | 0.0192
4 | CCCCc1nc(Cl)c(CO)n1Cc1ccc(-c2ccccc2-c2nnn[nH]2)cc1 [Losartan] | 0.417 | 0.319 | 0.323 | 0.343 | 0.157 | 0.105 | 0.0258 | 0.299 | 0.123 | – | 0.781 | 0.06 | 0.149 | 0.294 | 0.358
5 | Cc1cc(Cl)ccc1OC(C)C(=O)O (stereo unspecified) [Mecoprop] | 0.0948 | 0.267 | 0.155 | 0.0787 | 0.0613 | 0.159 | 0.0616 | 0.0286 | 0.0247 | 0.021 | 0.0919 | 0.0712 | 0.201 | 0.163 | 0.417
6 | c1ccc2[nH]nnc2c1 [Benzotriazole] | 0.0409 | 0.0507 | 0.316 | 2.87 | 0.0121 | 0.00219 | – | 0.208 | 0.00553 | – | 0.0923 | – | 0.00612 | 0.0122 | 0.0264
7 | CN(C)CCCC1(c2ccc(F)cc2)OCc2cc(C#N)ccc21 (stereo unspecified) [Citalopram] | 0.00417 | 4.92 | – | 19.9 | 0.279 | 0.06 | – | – | – | 8.04 | – | 0.0178 | 0.288 | 0.0832 | 0.185

Now from value to compound:

Row | first-order primary biodegradation rate constant k [1] | first-order primary biodegradation rate constant k [2] | first-order primary biodegradation rate constant k [3] | first-order primary biodegradation rate constant k [4] | first-order primary biodegradation rate constant k [5] | first-order primary biodegradation rate constant k [6] | first-order primary biodegradation rate constant k [7] | first-order primary biodegradation rate constant k [8] | first-order primary biodegradation rate constant k [9] | first-order primary biodegradation rate constant k [10] | first-order primary biodegradation rate constant k [11] | first-order primary biodegradation rate constant k [12] | first-order primary biodegradation rate constant k [13] | first-order primary biodegradation rate constant k [14] | first-order primary biodegradation rate constant k [15] | SMILES
8 | 0.137 | 0.18 | 0.0748 | 0.0701 | 0.574 | 0.074 | 0.0381 | 0.158 | – | – | – | – | – | – | – | O=C(O)Cc1ccccc1Nc1c(Cl)cccc1Cl [Diclofenac]
9 | 11.8 | 54.6 | 68.6 | – | – | 43.8 | 12.1 | – | 5.65 | 17.4 | 29.1 | 0.758 | 11.7 | – | – | CCCCCCCCCCN [Decylamine]
10 | 0.231 | – | – | – | 0.309 | 0.539 | 0.0162 | 0.303 | 0.118 | 0.0886 | 0.0227 | 0.0688 | 0.251 | 0.246 | 0.29 | CC(C)NCC(O)COc1cccc2ccccc12 (stereo unspecified) [Propranolol]
11 | – | 0.116 | 0.228 | 0.0674 | – | 1.31 | – | 0.0814 | 0.0199 | 0.0658 | – | – | – | – | – | O=C(NCC1CCCCN1)c1cc(OCC(F)(F)F)ccc1OCC(F)(F)F (stereo unspecified) [Flecainide]
12 | 1.6 | 1.17 | 2.15 | 12 | – | 0.639 | 0.449 | 2.21 | 1.37 | 1.43 | 2.35 | 0.83 | 1.18 | 1.47 | 1.5 | Nc1nc(NC2CC2)c2ncn([C@H]3C=C[C@@H](CO)C3)c2n1 [Abacavir]
